Assay results reported in PMC4490784, “Compensatory induction of MYC expression by sustained CDK9 inhibition via a BRD4-dependent mechanism” (eLife, 2015).

Legend:
Test in all cases: KINOMEscan binding assay
AMPK-alpha1 = target: T1, AMPK-alpha1 (Homo sapiens, UniProt Q13131); settings: read-out: % Retention on Solid Support
T1 construct: purchased DiscoveRx KINOMEscan
Outline: (§1)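 Selectivity profiling used a competition-binding format directed at the kinase active site. The inhibitor was screened at 1 and 10 µM over a panel exceeding 400 kinases.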

ARK5 = target: T2, ARK5 (Homo sapiens, UniProt O60285)
T2 construct: purchased DiscoveRx KINOMEscan
Outline: as §1

CAMK1G = target: T3, CAMK1G (Homo sapiens, UniProt Q96NX5); settings: read-out: % Retention on Solid Support
T3 construct: purchased DiscoveRx KINOMEscan
Outline: as §1

CDK4-cyclinD3 = target: T4, CDK4-cyclinD3 (Homo sapiens, UniProt P11802); settings: 1 µM i-CDK9; read-out: % Retention on Solid Support
T4 construct: purchased DiscoveRx KINOMEscan
Outline: as §1

CIT = target: T5, CIT (Homo sapiens, UniProt O14578)
T5 construct: purchased DiscoveRx KINOMEscan
Outline: as §1

DMPK2 = target: T6, DMPK2 (Homo sapiens, UniProt Q6DT37); settings: read-out: % Retention on Solid Support
T6 construct: purchased DiscoveRx KINOMEscan
Outline: as §1

DRAK2 = target: T7, DRAK2 (Homo sapiens, UniProt O94768); settings: read-out: % Retention on Solid Support
T7 construct: purchased DiscoveRx KINOMEscan
Outline: as §1

[1] = target: T8, EGFR(L747-S752del, P753S) (Homo sapiens, UniProt P00533, DEL747-752/P753S)
T8 construct: purchased DiscoveRx KINOMEscan
Outline: as §1

ERK3 = target: T9, ERK3 (Homo sapiens, UniProt Q16659); settings: read-out: % Retention on Solid Support
T9 construct: purchased DiscoveRx KINOMEscan
Outline: as §1

ERK5 = target: T10, ERK5 (Homo sapiens, UniProt Q13164); settings: read-out: % Retention on Solid Support
T10 construct: purchased DiscoveRx KINOMEscan
Outline: as §1

HCK = target: T11, HCK (Homo sapiens, UniProt P08631); settings: read-out: % Retention on Solid Support
T11 construct: purchased DiscoveRx KINOMEscan
Outline: as §1

HIPK2 = target: T12, HIPK2 (Homo sapiens, UniProt Q9H2X6); settings: read-out: % Retention on Solid Support
T12 construct: purchased DiscoveRx KINOMEscan
Outline: as §1

[2] = target: T13, JAK3(JH1domain-catalytic) (Homo sapiens, UniProt P52333); settings: read-out: % Retention on Solid Support
T13 construct: JAK3(JH1domain-catalytic); purchased DiscoveRx KINOMEscan
Outline: as §1

MARK1 = target: T14, MARK1 (Homo sapiens, UniProt Q9P0L2); settings: read-out: % Retention on Solid Support
T14 construct: purchased DiscoveRx KINOMEscan
Outline: as §1

MARK4 = target: T15, MARK4 (Homo sapiens, UniProt Q96L34)
T15 construct: purchased DiscoveRx KINOMEscan
Outline: as §1

MEK1 = target: T16, MEK1 (Homo sapiens, UniProt Q02750); settings: read-out: % Retention on Solid Support
T16 construct: purchased DiscoveRx KINOMEscan
Outline: as §1

MEK4 = target: T17, MEK4 (Homo sapiens, UniProt P45985); settings: read-out: % Retention on Solid Support
T17 construct: purchased DiscoveRx KINOMEscan
Outline: as §1

MEK6 = target: T18, MEK6 (Homo sapiens, UniProt P52564); settings: read-out: % Retention on Solid Support
T18 construct: purchased DiscoveRx KINOMEscan
Outline: as §1

MST1R = target: T19, MST1R (Homo sapiens, UniProt Q04912); settings: read-out: % Retention on Solid Support
T19 construct: purchased DiscoveRx KINOMEscan
Outline: as §1

MTOR = target: T20, MTOR (Homo sapiens, UniProt P42345); settings: 1 µM i-CDK9; read-out: % Retention on Solid Support
T20 construct: purchased DiscoveRx KINOMEscan
Outline: as §1

NEK5 = target: T21, NEK5 (Homo sapiens, UniProt Q6P3R8); settings: read-out: % Retention on Solid Support
T21 construct: purchased DiscoveRx KINOMEscan
Outline: as §1

NEK6 = target: T22, NEK6 (Homo sapiens, UniProt Q9HC98); settings: read-out: % Retention on Solid Support
T22 construct: purchased DiscoveRx KINOMEscan
Outline: as §1

PDGFRB = target: T23, PDGFRB (Homo sapiens, UniProt P09619); settings: read-out: % Retention on Solid Support
T23 construct: purchased DiscoveRx KINOMEscan
Outline: as §1

PFPK5(P.falciparum) = target: T24, PFPK5(P.falciparum) (Plasmodium falciparum, UniProt P61075); settings: 1 µM i-CDK9; read-out: % Retention on Solid Support
T24 construct: purchased DiscoveRx KINOMEscan
Outline: as §1

PHKG2 = target: T25, PHKG2 (Homo sapiens, UniProt P15735); settings: read-out: % Retention on Solid Support
T25 construct: purchased DiscoveRx KINOMEscan
Outline: as §1

PIK3CA(Q546K) = target: T26, PIK3CA(Q546K) (Homo sapiens, UniProt P42336, Q546K); settings: read-out: % Retention on Solid Support
T26 construct: purchased DiscoveRx KINOMEscan
Outline: as §1

PIK3CB = target: T27, PIK3CB (Homo sapiens, UniProt P42338); settings: read-out: % Retention on Solid Support
T27 construct: purchased DiscoveRx KINOMEscan
Outline: as §1

PIP5K2B = target: T28, PIP5K2B (Homo sapiens, UniProt P78356); settings: read-out: % Retention on Solid Support
T28 construct: purchased DiscoveRx KINOMEscan
Outline: as §1

SNRK = target: T29, SNRK (Homo sapiens, UniProt Q9NRH2); settings: 1 µM i-CDK9; read-out: % Retention on Solid Support
T29 construct: purchased DiscoveRx KINOMEscan
Outline: as §1

TRKC = target: T30, TRKC (Homo sapiens, UniProt Q16288); settings: read-out: % Retention on Solid Support
T30 construct: purchased DiscoveRx KINOMEscan
Outline: as §1

T23 sequence (P09619 33-1106): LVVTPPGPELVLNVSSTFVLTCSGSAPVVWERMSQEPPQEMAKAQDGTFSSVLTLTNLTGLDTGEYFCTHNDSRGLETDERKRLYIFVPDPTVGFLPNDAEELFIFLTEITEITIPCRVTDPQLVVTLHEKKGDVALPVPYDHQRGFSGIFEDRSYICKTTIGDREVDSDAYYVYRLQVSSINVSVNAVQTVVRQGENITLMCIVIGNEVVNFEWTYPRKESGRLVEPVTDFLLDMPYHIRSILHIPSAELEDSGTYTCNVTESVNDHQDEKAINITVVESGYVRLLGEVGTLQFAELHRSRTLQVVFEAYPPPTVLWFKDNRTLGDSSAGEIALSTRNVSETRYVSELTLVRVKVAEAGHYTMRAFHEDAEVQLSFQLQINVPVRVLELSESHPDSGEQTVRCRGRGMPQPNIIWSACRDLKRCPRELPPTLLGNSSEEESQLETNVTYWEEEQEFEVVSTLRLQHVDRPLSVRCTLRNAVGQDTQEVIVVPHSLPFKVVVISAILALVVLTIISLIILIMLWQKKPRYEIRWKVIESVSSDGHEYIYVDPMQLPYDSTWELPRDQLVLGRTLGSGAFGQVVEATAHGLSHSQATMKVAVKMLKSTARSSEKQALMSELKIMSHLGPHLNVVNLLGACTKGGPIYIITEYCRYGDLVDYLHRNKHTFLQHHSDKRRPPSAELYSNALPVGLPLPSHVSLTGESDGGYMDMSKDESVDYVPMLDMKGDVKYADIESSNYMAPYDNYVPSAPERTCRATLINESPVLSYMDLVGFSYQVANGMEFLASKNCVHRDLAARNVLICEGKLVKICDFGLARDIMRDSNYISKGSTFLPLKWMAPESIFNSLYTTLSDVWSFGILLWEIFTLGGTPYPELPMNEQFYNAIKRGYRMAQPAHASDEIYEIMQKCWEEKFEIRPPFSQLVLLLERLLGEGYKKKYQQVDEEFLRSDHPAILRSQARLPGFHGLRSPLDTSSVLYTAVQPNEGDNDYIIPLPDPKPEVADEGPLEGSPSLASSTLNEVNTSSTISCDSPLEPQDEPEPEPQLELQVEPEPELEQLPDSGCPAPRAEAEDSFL
T30 sequence (Q16288 32-839): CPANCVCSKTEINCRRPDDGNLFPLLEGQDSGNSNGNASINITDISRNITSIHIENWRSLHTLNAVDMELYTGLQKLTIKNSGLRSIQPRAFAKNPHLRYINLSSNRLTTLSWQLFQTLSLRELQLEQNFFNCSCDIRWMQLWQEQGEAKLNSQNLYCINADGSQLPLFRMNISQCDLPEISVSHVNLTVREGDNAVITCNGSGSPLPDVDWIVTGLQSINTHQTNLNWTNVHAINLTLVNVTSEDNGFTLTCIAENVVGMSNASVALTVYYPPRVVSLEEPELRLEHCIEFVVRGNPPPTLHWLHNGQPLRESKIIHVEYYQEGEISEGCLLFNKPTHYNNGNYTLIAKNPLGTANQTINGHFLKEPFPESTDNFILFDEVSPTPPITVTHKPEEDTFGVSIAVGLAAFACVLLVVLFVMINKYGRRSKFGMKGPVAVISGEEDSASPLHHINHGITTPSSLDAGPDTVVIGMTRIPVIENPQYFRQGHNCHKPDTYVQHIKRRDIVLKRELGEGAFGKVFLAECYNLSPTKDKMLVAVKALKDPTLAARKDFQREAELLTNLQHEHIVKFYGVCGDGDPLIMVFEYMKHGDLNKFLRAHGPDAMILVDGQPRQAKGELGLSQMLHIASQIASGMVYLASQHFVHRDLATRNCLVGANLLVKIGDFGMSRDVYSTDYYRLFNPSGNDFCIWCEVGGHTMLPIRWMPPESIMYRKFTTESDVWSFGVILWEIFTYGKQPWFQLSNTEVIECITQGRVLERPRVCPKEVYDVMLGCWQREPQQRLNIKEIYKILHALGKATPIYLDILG
T19 sequence (Q04912 25-1400): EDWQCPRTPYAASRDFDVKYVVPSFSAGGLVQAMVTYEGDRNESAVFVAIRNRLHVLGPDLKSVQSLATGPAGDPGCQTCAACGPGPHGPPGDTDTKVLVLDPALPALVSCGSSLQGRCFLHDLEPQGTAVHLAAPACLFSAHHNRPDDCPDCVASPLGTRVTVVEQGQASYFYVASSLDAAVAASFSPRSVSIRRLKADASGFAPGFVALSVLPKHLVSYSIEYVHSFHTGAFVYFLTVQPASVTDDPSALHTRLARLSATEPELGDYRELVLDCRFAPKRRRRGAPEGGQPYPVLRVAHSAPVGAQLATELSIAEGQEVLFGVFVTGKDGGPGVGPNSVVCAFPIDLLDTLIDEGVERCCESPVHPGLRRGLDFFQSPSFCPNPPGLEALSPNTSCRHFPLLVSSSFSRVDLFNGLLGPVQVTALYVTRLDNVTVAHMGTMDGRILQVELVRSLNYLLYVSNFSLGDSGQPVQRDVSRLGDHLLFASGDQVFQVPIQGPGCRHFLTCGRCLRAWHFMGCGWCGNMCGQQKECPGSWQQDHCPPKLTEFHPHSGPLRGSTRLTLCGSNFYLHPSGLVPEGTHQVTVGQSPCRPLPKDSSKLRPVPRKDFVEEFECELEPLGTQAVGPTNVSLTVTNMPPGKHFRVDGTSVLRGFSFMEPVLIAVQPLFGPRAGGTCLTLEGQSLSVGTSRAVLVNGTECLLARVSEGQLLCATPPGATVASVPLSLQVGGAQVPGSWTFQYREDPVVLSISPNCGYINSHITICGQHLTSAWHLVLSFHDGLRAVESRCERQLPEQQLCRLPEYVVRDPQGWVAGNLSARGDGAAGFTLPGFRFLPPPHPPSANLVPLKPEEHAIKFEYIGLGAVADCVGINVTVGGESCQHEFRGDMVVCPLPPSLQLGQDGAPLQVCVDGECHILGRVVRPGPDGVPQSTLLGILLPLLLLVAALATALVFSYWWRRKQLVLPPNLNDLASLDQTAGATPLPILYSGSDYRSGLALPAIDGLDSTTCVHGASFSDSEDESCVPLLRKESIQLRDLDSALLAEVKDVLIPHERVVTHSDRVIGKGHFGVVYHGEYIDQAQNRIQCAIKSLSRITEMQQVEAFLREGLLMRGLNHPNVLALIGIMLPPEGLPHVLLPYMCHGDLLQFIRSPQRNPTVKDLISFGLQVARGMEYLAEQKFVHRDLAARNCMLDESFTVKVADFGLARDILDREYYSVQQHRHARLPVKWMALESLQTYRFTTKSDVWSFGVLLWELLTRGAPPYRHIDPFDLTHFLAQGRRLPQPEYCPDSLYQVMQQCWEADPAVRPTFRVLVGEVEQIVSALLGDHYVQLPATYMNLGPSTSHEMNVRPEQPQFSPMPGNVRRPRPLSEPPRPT
T22 sequence (Q9HC98 whole entry): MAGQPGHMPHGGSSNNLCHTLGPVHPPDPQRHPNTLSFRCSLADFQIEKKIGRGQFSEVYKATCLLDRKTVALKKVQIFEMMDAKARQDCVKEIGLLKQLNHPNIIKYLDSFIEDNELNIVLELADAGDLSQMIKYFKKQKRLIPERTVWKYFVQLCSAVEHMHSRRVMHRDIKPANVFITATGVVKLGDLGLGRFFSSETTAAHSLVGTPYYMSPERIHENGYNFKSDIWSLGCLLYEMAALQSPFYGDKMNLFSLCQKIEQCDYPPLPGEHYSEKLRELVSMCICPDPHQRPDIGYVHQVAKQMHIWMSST
T25 sequence (P15735 whole entry): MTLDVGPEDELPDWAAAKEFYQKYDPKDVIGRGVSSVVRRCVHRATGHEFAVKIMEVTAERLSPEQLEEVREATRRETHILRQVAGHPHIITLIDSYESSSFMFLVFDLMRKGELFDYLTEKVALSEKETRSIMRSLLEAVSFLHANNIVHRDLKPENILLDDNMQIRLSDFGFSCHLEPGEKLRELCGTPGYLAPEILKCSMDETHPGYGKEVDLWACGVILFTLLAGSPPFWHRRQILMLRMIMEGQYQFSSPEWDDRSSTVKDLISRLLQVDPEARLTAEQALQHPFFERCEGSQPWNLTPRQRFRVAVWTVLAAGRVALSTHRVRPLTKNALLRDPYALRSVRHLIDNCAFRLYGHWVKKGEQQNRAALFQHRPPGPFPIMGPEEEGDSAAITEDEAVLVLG
T2 sequence (O60285 whole entry): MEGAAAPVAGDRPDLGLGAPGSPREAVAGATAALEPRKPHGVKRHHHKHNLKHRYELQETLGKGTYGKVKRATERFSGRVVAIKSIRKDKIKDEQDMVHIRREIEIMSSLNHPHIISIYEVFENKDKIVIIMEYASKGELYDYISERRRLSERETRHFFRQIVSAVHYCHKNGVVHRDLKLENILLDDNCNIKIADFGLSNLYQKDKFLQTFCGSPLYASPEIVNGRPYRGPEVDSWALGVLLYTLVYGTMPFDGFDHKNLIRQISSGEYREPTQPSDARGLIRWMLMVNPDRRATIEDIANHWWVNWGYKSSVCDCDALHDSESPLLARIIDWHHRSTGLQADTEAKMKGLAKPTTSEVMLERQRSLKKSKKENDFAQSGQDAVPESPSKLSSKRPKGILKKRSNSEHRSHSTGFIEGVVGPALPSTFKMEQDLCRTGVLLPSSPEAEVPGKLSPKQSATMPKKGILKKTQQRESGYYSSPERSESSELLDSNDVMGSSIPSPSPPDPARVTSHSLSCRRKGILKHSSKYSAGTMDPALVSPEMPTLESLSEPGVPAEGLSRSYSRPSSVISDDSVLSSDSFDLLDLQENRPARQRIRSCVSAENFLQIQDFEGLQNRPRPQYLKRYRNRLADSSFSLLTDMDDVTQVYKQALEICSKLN
T13 sequence (P52333 813-1124 limits assumed): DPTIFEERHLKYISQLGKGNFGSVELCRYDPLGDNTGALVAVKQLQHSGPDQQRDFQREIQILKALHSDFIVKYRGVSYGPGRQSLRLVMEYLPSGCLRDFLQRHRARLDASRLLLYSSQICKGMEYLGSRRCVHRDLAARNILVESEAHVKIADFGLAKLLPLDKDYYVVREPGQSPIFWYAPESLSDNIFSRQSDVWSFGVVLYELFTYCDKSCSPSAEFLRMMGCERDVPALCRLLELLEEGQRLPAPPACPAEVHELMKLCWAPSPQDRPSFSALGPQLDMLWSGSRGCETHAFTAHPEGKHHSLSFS

`N[C@H]1CC[C@H](Nc2cc(-c3cccc(NCc4cccc(F)c4)n3)c(Cl)cn2)CC1` [i-CDK9, N2′-(trans-4-aminocyclohexyl)-5′-chloro-N6-(3-fluorobenzyl)-2,4′-bipyridine-2′,6-diamine] was tested. Which remaining binding at 1 µM (AMPK-alpha1; 1 µM i-CDK9) did it give?
Its remaining binding at 1 µM is 84%.

And the remaining binding at 10 µM (AMPK-alpha1; 10 µM i-CDK9)?
Its remaining binding at 10 µM is 93%.

And the “% Retention on Solid Support” value (ARK5; 1 µM i-CDK9)?
The value was 72%.

What about the “% Retention on Solid Support” value (ARK5; 10 µM i-CDK9) of the same compound?
Its value is 100%.

What about the remaining binding at 1 µM (CAMK1G; 1 µM i-CDK9) of the same compound?
The remaining binding at 1 µM was 92%.

And the remaining binding at 10 µM (CAMK1G; 10 µM i-CDK9)?
Its remaining binding at 10 µM is 100%.

What about the remaining binding at 1 µM (CDK4-cyclinD3) of the same compound?
The remaining binding at 1 µM was 100%.

What about the “% Retention on Solid Support” value (CIT; 1 µM i-CDK9) of the same compound?
Its value is 60%.

What about the “% Retention on Solid Support” value (CIT; 10 µM i-CDK9) of the same compound?
Its value is 8.2%.

And the remaining binding at 1 µM (DMPK2; 1 µM i-CDK9)?
Its remaining binding at 1 µM is 100%.

What about the remaining binding at 10 µM (DMPK2; 10 µM i-CDK9) of the same compound?
Its remaining binding at 10 µM is 100%.

What about the remaining binding at 1 µM (DRAK2; 1 µM i-CDK9) of the same compound?
Its remaining binding at 1 µM is 82%.

And the remaining binding at 10 µM (DRAK2; 10 µM i-CDK9)?
The remaining binding at 10 µM was 72%.

And the “% Retention on Solid Support” value ([1]; 1 µM i-CDK9)?
Its value is 46%.

And the “% Retention on Solid Support” value ([1]; 10 µM i-CDK9)?
Its value is 65%.

And the remaining binding at 1 µM (ERK3; 1 µM i-CDK9)?
Its remaining binding at 1 µM is 94%.

And the remaining binding at 10 µM (ERK3; 10 µM i-CDK9)?
Its remaining binding at 10 µM is 94%.

And the remaining binding at 1 µM (ERK5; 1 µM i-CDK9)?
Its remaining binding at 1 µM is 100%.

What about the remaining binding at 10 µM (ERK5; 10 µM i-CDK9) of the same compound?
The remaining binding at 10 µM was 92%.

What about the remaining binding at 1 µM (HCK; 1 µM i-CDK9) of the same compound?
The remaining binding at 1 µM was 81%.

And the remaining binding at 10 µM (HCK; 10 µM i-CDK9)?
Its remaining binding at 10 µM is 100%.

What about the remaining binding at 1 µM (HIPK2; 1 µM i-CDK9) of the same compound?
The remaining binding at 1 µM was 100%.

And the remaining binding at 10 µM (HIPK2; 10 µM i-CDK9)?
Its remaining binding at 10 µM is 37%.

And the remaining binding at 1 µM ([2]; 1 µM i-CDK9)?
The remaining binding at 1 µM was 100%.

And the remaining binding at 10 µM ([2]; 10 µM i-CDK9)?
Its remaining binding at 10 µM is 100%.

What about the remaining binding at 1 µM (MARK1; 1 µM i-CDK9) of the same compound?
Its remaining binding at 1 µM is 99%.

And the remaining binding at 10 µM (MARK1; 10 µM i-CDK9)?
Its remaining binding at 10 µM is 100%.

What about the “% Retention on Solid Support” value (MARK4; 1 µM i-CDK9) of the same compound?
Its value is 100%.

What about the “% Retention on Solid Support” value (MARK4; 10 µM i-CDK9) of the same compound?
The value was 100%.

And the remaining binding at 1 µM (MEK1; 1 µM i-CDK9)?
Its remaining binding at 1 µM is 100%.

And the remaining binding at 10 µM (MEK1; 10 µM i-CDK9)?
The remaining binding at 10 µM was 100%.

And the remaining binding at 1 µM (MEK4; 1 µM i-CDK9)?
The remaining binding at 1 µM was 39%.

What about the remaining binding at 10 µM (MEK4; 10 µM i-CDK9) of the same compound?
Its remaining binding at 10 µM is 97%.

And the remaining binding at 1 µM (MEK6; 1 µM i-CDK9)?
The remaining binding at 1 µM was 96%.

And the remaining binding at 10 µM (MEK6; 10 µM i-CDK9)?
Its remaining binding at 10 µM is 100%.

And the remaining binding at 1 µM (MST1R; 1 µM i-CDK9)?
Its remaining binding at 1 µM is 100%.

What about the remaining binding at 10 µM (MST1R; 10 µM i-CDK9) of the same compound?
Its remaining binding at 10 µM is 100%.

What about the remaining binding at 1 µM (MTOR) of the same compound?
The remaining binding at 1 µM was 100%.

What about the remaining binding at 1 µM (NEK5; 1 µM i-CDK9) of the same compound?
Its remaining binding at 1 µM is 88%.

And the remaining binding at 10 µM (NEK5; 10 µM i-CDK9)?
The remaining binding at 10 µM was 100%.

What about the remaining binding at 1 µM (NEK6; 1 µM i-CDK9) of the same compound?
The remaining binding at 1 µM was 70%.

And the remaining binding at 10 µM (NEK6; 10 µM i-CDK9)?
The remaining binding at 10 µM was 100%.

And the remaining binding at 1 µM (PDGFRB; 1 µM i-CDK9)?
Its remaining binding at 1 µM is 74%.

And the remaining binding at 10 µM (PDGFRB; 10 µM i-CDK9)?
Its remaining binding at 10 µM is 100%.

And the remaining binding at 1 µM (PFPK5(P.falciparum))?
The remaining binding at 1 µM was 100%.

What about the remaining binding at 1 µM (PHKG2; 1 µM i-CDK9) of the same compound?
Its remaining binding at 1 µM is 100%.

And the remaining binding at 10 µM (PHKG2; 10 µM i-CDK9)?
The remaining binding at 10 µM was 72%.

And the remaining binding at 1 µM (PIK3CA(Q546K); 1 µM i-CDK9)?
Its remaining binding at 1 µM is 73%.

And the remaining binding at 10 µM (PIK3CA(Q546K); 10 µM i-CDK9)?
Its remaining binding at 10 µM is 100%.

What about the remaining binding at 1 µM (PIK3CB; 1 µM i-CDK9) of the same compound?
Its remaining binding at 1 µM is 68%.

What about the remaining binding at 10 µM (PIK3CB; 10 µM i-CDK9) of the same compound?
Its remaining binding at 10 µM is 84%.

What about the remaining binding at 1 µM (PIP5K2B; 1 µM i-CDK9) of the same compound?
Its remaining binding at 1 µM is 100%.

What about the remaining binding at 10 µM (PIP5K2B; 10 µM i-CDK9) of the same compound?
Its remaining binding at 10 µM is 77%.

What about the remaining binding at 1 µM (SNRK) of the same compound?
Its remaining binding at 1 µM is 64%.

And the remaining binding at 1 µM (TRKC; 1 µM i-CDK9)?
Its remaining binding at 1 µM is 63%.

What about the remaining binding at 10 µM (TRKC; 10 µM i-CDK9) of the same compound?
The remaining binding at 10 µM was 95%.
